The record followed here is ChEMBL document CHEMBL1909046, “DrugMatrix in vitro pharmacology data”.

For orientation: IC50 means the concentration that gives 50% inhibition. One may read the Ki as a measure of affinity in units of concentration, obtained from inhibition or displacement.

The target of one data set is T1, Cytochrome P450 1A2 (Homo sapiens, UniProt P05177). Also: in other assays of this panel Not Active means under 50% inhibition at 10 µM.
T1 sequence (P05177 whole entry): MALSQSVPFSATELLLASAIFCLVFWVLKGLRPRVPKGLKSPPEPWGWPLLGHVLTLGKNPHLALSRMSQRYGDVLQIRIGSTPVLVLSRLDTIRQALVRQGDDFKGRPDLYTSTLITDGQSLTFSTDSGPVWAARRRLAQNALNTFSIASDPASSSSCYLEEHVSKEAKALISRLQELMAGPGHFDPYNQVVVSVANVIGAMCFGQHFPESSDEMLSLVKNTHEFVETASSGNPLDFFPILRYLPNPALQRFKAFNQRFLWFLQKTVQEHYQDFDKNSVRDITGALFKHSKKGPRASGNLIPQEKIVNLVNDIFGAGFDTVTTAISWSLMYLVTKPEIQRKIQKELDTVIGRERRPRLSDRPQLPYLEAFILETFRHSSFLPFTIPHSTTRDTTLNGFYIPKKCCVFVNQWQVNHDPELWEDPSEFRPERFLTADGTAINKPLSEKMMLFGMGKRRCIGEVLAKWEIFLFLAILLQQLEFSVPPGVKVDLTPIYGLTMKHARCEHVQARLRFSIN
The settings on record: bti-tn-5b1-4.

Data set [1] addresses T2, Type-2 angiotensin II receptor (Homo sapiens, UniProt P50052).
T2 sequence (P50052 whole entry): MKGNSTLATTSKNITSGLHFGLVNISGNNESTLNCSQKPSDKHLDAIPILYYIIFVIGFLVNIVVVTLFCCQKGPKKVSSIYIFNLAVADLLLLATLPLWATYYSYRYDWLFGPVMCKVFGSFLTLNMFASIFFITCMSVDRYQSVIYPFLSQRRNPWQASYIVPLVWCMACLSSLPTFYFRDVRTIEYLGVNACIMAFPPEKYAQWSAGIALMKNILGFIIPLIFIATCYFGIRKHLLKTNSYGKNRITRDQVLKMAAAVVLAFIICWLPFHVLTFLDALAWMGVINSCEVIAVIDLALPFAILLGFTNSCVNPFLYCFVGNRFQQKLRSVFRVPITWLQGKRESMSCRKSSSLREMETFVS
Type of data set: cell-based. The settings on record: cho-k1.

In data set [2] the target is Protein kinase C alpha type (Homo sapiens, UniProt P17252). The data set is classed as cell-based. The settings on record: sf9.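 Also: inhibition of PKCalpha kinase activity measured in an enzyme assay with histone as the phosphorylation substrate; in other assays of this panel Not Active means under 50% inhibition at 10 µM.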
Data set [3] in a line: DRUGMATRIX: Serotonin (5-Hydroxytryptamine) 5-HT3 radioligand binding (ligand: [3H] GR-65630). The note with it: hek293; Not Active = under 50% inhibition at 10 µM. Type of data set: cell membranes, Membrane.
Data set [4] concerns the target Sigma non-opioid intracellular receptor 1 (Homo sapiens, UniProt Q99720). Nature of the data set: DRUGMATRIX: Sigma1 radioligand binding (ligand: [3H] Haloperidol). Type of data set: cell membranes, Jurkat, Membrane. The settings on record: Not Active = under 50% inhibition at 10 µM; for Ki: read-out: Ki.
Data set [5] addresses Tyrosine-protein kinase Lck (Homo sapiens, UniProt P06239). Put plainly: DRUGMATRIX: Protein Tyrosine Kinase, LCK enzyme inhibition (substrate: Poly(Glu:Tyr)). The data set is classed as cell-based, Insect cells. The note with it: Not Active = under 50% inhibition at 10 µM.
The next data set deals with Melanocortin receptor 4 (Homo sapiens, UniProt P32245). The data set is classed as cell membranes, HEK293, Membrane. The settings on record: hek293.
Chain of Melanocortin receptor 4 (P32245 whole entry): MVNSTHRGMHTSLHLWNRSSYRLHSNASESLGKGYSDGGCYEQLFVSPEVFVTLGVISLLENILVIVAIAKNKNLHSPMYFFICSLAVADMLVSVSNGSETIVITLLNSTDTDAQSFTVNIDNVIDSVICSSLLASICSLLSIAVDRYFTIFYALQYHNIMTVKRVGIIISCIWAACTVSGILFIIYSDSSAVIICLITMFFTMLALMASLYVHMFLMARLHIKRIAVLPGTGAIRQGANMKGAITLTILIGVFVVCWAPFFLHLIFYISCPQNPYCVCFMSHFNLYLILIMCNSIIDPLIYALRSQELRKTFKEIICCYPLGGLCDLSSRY

Chain of Sigma non-opioid intracellular receptor 1 (Q99720 whole entry): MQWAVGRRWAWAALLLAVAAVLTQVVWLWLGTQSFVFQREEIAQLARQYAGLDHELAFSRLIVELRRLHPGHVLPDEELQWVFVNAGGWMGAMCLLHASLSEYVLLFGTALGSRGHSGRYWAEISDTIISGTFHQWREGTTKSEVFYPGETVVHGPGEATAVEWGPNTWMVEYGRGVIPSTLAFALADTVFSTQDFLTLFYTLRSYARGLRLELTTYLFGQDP
Chain of Tyrosine-protein kinase Lck (P06239 whole entry): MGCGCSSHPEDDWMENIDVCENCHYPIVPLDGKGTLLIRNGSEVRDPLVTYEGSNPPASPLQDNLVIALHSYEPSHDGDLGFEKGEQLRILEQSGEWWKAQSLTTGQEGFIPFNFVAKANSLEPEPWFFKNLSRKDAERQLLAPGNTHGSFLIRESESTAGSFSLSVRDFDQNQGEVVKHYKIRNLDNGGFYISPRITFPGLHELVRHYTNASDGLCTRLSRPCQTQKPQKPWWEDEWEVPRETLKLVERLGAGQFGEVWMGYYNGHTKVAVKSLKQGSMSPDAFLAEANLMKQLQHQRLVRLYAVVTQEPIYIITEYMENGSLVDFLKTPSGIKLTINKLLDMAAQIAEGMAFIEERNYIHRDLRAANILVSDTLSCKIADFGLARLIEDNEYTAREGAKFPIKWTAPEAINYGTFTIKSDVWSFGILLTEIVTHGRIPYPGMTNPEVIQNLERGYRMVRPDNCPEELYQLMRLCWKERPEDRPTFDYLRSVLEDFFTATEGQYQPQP

Regarding `O=C(c1ccccc1C(F)(F)F)N1CCC(Cc2ccccc2)CC1`, the IC50 result (against Cytochrome P450 1A2; in data set [1]; in data set [2]; in data set [3]; in data set [4] (jurkat); in data set [5] (insect cells)) was “Not Active” throughout. On Melanocortin receptor 4, the IC50 entry is “Not Active”. Besides, the Ki entry (on Cytochrome P450 1A2; in data set [3]) was “Not Active” each time.
On to `O=C/C=C/c1ccccc1`, for which the IC50 result (at Cytochrome P450 1A2; in data set [1]; in data set [2]; in data set [3]; in data set [4] (jurkat); in data set [5] (insect cells)) was “Not Active” each time. Besides, the IC50 entry against Melanocortin receptor 4 is on record as “Not Active”. For the same compound, the inhibitory constant (Ki) result (at Cytochrome P450 1A2; in data set [3]) was “Not Active” in each case.
On to `Nc1ccc2c3c(cccc13)C(=O)NC2=O`, for which the concentration for half-maximal inhibition (IC50) entry (on Cytochrome P450 1A2; in data set [1]; in data set [2]; in data set [3]; in data set [4] (jurkat); in data set [5] (insect cells)) was “Not Active” each time. Moreover, the IC50 entry against Melanocortin receptor 4 is “Not Active”. Moreover, the Ki entry (on Cytochrome P450 1A2; in data set [3]) was “Not Active” in each case.
`COc1ccc(C(=O)N2CCCC2=O)cc1`: the IC50 entry (against Cytochrome P450 1A2; in data set [1]; in data set [2]; in data set [3]; in data set [4] (jurkat); in data set [5] (insect cells)) was “Not Active” in each case. For the same compound, the IC50 entry against Melanocortin receptor 4 is “Not Active”. In addition, the Ki entry (on Cytochrome P450 1A2; in data set [3]) was “Not Active” throughout.
Consider `O=c1cnn([C@@H]2O[C@H](CO)[C@@H](O)[C@H]2O)c(=O)[nH]1` [6-AZAURIDINE], for which the IC50 result (against Cytochrome P450 1A2; in data set [1]; in data set [2]; in data set [3]; in data set [4] (jurkat); in data set [5] (insect cells)) was “Not Active” each time. In addition, on Melanocortin receptor 4, the IC50 result was “Not Active”. Further, the Ki result (on Cytochrome P450 1A2; in data set [3]) was “Not Active” throughout.
For the compound `CC[C@H](C)[C@H]1O[C@]2(C=C[C@@H]1C)C[C@@H]1C[C@@H](C/C=C(\C)[C@@H](O[C@H]3C[C@H](OC)[C@@H](O[C@H]4C[C@H](OC)[C@@H](O)[C@H](C)O4)[C@H](C)O3)[C@@H](C)/C=C/C=C3\CO[C@@H]4[C@H](O)C(C)=C[C@@H](C(=O)O1)[C@]34O)O2.CO[C@H]1C[C@H](O[C@H]2[C@H](C)O[C@@H](O[C@@H]3/C(C)=C/C[C@@H]4C[C@@H](C[C@]5(C=C[C@H](C)[C@@H](C(C)C)O5)O4)OC(=O)[C@@H]4C=C(C)[C@@H](O)[C@H]5OC/C(=C\C=C\[C@@H]3C)[C@]54O)C[C@@H]2OC)O[C@@H](C)[C@@H]1O` [ABAMECTIN], the IC50 entry (at Cytochrome P450 1A2; in data set [1]; in data set [2]; in data set [3]; in data set [4] (jurkat); in data set [5] (insect cells)) was “Not Active” throughout. In addition, the half-maximal inhibitory concentration (IC50) entry on Melanocortin receptor 4 is reported as “Not Active”. Also, the inhibition constant (Ki) entry (on Cytochrome P450 1A2; in data set [3]) was “Not Active” each time.
With `NCCCC(O)(P(=O)(O)O)P(=O)(O)O` [ALENDRONIC ACID], the IC50 entry (in data set [1]; in data set [2]; in data set [3]; in data set [4] (jurkat); in data set [5] (insect cells); against Melanocortin receptor 4) was “Not Active” each time. In addition, the Ki entry in data set [3] is “Not Active”.
On to `CN1[C@@H]2CC[C@H]1C[C@@H](OC(=O)C(CO)c1ccccc1)C2` (stereo partly drawn) [ATROPINE], for which the IC50 entry (in data set [1]; in data set [2]; in data set [3]; in data set [4] (jurkat); in data set [5] (insect cells); at Melanocortin receptor 4) was “Not Active” each time. Besides, the Ki result in data set [3] was “Not Active”.
Take `COc1ccc2cc3[n+](cc2c1OC)CCc1cc2c(cc1-3)OCO2.[Cl-]` [BERBERINE CHLORIDE]: the half-inhibitory concentration (IC50) entry is “Not Active” at Cytochrome P450 1A2; “Not Active” in data set [1]; “Not Active” in data set [2]; 1.29 µM in data set [4] (read-out: IC50); “Not Active” in data set [5] (insect cells); “Not Active” against Melanocortin receptor 4. In addition, the figures for the Ki entry (at Cytochrome P450 1A2; in data set [4]) were “Not Active” and 0.542 µM, respectively.
Regarding `COc1cc([C@@H]2c3cc4c(cc3[C@@H](O[C@@H]3O[C@@H]5CO[C@@H](C)O[C@H]5[C@H](O)[C@H]3O)[C@H]3COC(=O)[C@H]23)OCO4)cc(OC)c1O` [ETOPOSIDE], the IC50 entry (in data set [1]; in data set [2]; in data set [3]; in data set [4] (jurkat); in data set [5] (insect cells); against Melanocortin receptor 4) was “Not Active” each time. Besides, in data set [3], the Ki entry is “Not Active”.
With `COc1ccc2c3c1O[C@H]1C[C@@H](O)C=C[C@@]31CCN(C)C2` [GALANTAMINE], the IC50 entry (in data set [1]; in data set [2]; in data set [3]; in data set [4] (jurkat); in data set [5] (insect cells); at Melanocortin receptor 4) was “Not Active” throughout. In addition, the Ki entry in data set [3] is recorded as “Not Active”.
Regarding `CC(C)=CCC/C(C)=C/CO` [GERANIOL], the IC50 entry (in data set [1]; in data set [2]; in data set [3]; in data set [4] (jurkat); in data set [5] (insect cells); against Melanocortin receptor 4) was “Not Active” in each case. The Ki result in data set [3] is on record as “Not Active”.
Take `Oc1c(Cl)cc(Cl)c(Cl)c1Cc1c(O)c(Cl)cc(Cl)c1Cl` [HEXACHLOROPHENE]: the concentration for half-maximal inhibition (IC50) result is “Not Active” in data set [1]; “Not Active” in data set [2]; “Not Active” in data set [3]; “Not Active” in data set [4] (jurkat); 2.43 µM in data set [5] (read-out: IC50); “Not Active” on Melanocortin receptor 4. The Ki result in data set [3] is on record as “Not Active”.
As for `CC(=O)[C@@]1(O)CC[C@H]2[C@@H]3CCC4=CC(=O)CC[C@]4(C)[C@H]3CC[C@@]21C` [HYDROXYPROGESTERONE], the IC50 entry (in data set [1]; in data set [2]; in data set [3]; in data set [4] (jurkat); in data set [5] (insect cells); against Melanocortin receptor 4) was “Not Active” each time. For the same compound, the Ki entry in data set [3] is recorded as “Not Active”.
Regarding `O=c1cc(N2CCOCC2)oc2c(-c3ccccc3)cccc12` [LY-294002], the IC50 entry (in data set [1]; in data set [2]; in data set [3]; in data set [4] (jurkat); against Melanocortin receptor 4) was “Not Active” in each case. Also, in data set [3], the Ki result was “Not Active”.
Consider `CC(C)NCC(O)COc1cccc2[nH]ccc12` (stereo not drawn) [PINDOLOL], for which the IC50 result (in data set [1]; in data set [2]; in data set [3]; in data set [4] (jurkat); in data set [5] (insect cells); on Melanocortin receptor 4) was “Not Active” throughout. The inhibition constant Ki entry in data set [3] was “Not Active”.
Turning to `CCn1cc(C(=O)O)c(=O)c2cnc(N3CCCC3)nc21` [PIROMIDIC ACID], the IC50 entry (in data set [1]; in data set [2]; in data set [3]; in data set [4] (jurkat); in data set [5] (insect cells); at Melanocortin receptor 4) was “Not Active” throughout. Also, in data set [3], the Ki entry is “Not Active”.
Regarding `COc1cc2nc(N3CCN(C(=O)c4ccco4)CC3)nc(N)c2cc1OC` [PRAZOSIN], the 50% inhibitory concentration (IC50) result (on Cytochrome P450 1A2; in data set [1]; in data set [2]; in data set [4] (jurkat); in data set [5] (insect cells); against Melanocortin receptor 4) was “Not Active” throughout. Besides, the Ki entry at Cytochrome P450 1A2 is “Not Active”.
Take `CCCNCC(O)COc1ccccc1C(=O)CCc1ccccc1` (stereo not drawn) [PROPAFENONE]: the IC50 result in data set [1] was “Not Active”; in data set [2] it was “Not Active”; in data set [3], “Not Active”; in data set [4] (read-out: IC50), 2.61 µM; in data set [5] (insect cells), “Not Active”; at Melanocortin receptor 4 it was “Not Active”. For the same compound, the results for the Ki entry in data set [3] and in data set [4] were “Not Active” and 1.1 µM, respectively.
Turning to `CC(C)c1cccc(C(C)C)c1O` [PROPOFOL], the IC50 result (in data set [1]; in data set [2]; in data set [3]; in data set [4] (jurkat); in data set [5] (insect cells); against Melanocortin receptor 4) was “Not Active” in each case. Also, the Ki entry in data set [3] was “Not Active”.
